Experimental data: patent US5554613A, “Heterocyclic derivatives” (Zeneca Limited, priority 1992, dated 1996)

Experiments:
[1] = test system: de novo hepatic cholesterol synthesis; experiment: Acute rat cholesterol synthesis assay (de novo hepatic cholesterol synthesis from 14C-acetate); type: in vivo; conditions: female rats, oral gavage, ip or iv dosing, [2-14C]-acetate ip after 1 hour
Method: (b) Ache rat cholesterol synthesis assay.
This is an acute in vivo test in the rat to measure de novo hepatic cholesterol synthesis from exogenously administered ^14 C-acetate.
Female rats (35-55 g) are housed in reverse lighting conditions (red light from 0200h-1400h) for a period of about 2 weeks prior to test. Animals are allowed free access to chow and drinking water throughout this period. At test, animals should weigh 125-150 g.
Test compounds may be administered by oral gavage, dissolved or suspended in 0.5% polysorbate, or by ip or iv dosing. Control animals receive vehicle alone. After 1 hour the rats are injected ip with 25 μCi [2-^14 C]-acetate (NEN DUPONT. specific activity, 45-60 mCi/mmol NEC-085H, or AMERSHAM specific activity, 50-60mCi/mmol CFA 14) in a volume of 0.25 ml saline (100 μCi/ml). After a further hour, rats are terminally anaesthetised with halothane and a blood sample obtained from the abdominal vena cava.
1 ml of plasma is lyophilised and then saponified in 2 ml ethanolic KOH (1 part 33% KOH, 9 parts ethanol) at 75° C. for 2 hours. After addition of an equal quantity of water, non-saponifiable lipids are extracted with two 5 ml volumes of hexane. The hexane extracts are evaporated to dryness and the residues dissolved in ethanol to determine cholesterol specific radioactivity. ED50 values can be determined in the standard way.

Squalene synthase = biological target: T1, Squalene synthase (Rattus norvegicus, UniProt Q02769); experiment: Inhibition of Squalene synthase (formation of squalene from tritiated farnesyl pyrophosphate, rat liver microsomal protein); type: biochemical; conditions: at a concentration of 2.5 μM; rat liver microsomes
T1 construct: rat liver microsomal protein; from tissue; host or cells: rat liver microsomes
T1 sequence (Q02769 1-416): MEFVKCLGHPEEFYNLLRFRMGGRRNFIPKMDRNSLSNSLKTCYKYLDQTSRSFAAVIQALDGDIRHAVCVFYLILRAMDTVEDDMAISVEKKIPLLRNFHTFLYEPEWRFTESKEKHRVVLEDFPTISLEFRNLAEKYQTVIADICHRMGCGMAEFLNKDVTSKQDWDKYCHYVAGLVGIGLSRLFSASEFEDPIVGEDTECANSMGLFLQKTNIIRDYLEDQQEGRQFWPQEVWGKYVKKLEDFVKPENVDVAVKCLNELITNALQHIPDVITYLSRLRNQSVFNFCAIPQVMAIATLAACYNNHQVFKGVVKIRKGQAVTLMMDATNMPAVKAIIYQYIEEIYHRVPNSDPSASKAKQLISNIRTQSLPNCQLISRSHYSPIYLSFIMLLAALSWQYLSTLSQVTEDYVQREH
Method: (a) Inhibition of Squalene synthase
In this test, the ability of a compound to prevent the formation of squalene from a radioactive substrate (tritiated farnesyl pyrophosphate) is assessed.
The test compound is incubated at a concentration of […] in 200 μl of a buffered solution containing potassium phosphate (50 mM), MgCl2 (4.95 mM), KF (9.9 mM), NADPH (0.9 mM) and rat liver microsomal protein (20 μg). Rat liver microsomes are prepared by the method described in published European Patent Application No. 324,421 and stored in liquid nitrogen prior to assay. Assay vials are kept at 37° C. throughout the incubation.
The reaction is started with the addition of the substrate (1-[^3 H]-farnesyl pyrophosphate), final concentration 20 μM, and stopped after 15 minutes reaction time with the addition of 50 μl of 4% KOH. The reaction products are separated from unreacted substrate after application to a C-18 octadecyl 1 ccBond column (Analytichem Int product No. 617101). An aqueous fraction is eluted with 250 μl of 0.1M KOH. Squalene is then eluted with 1.0 ml 10% ethylacetate in hexane and radioactivity determined. The difference in radioactivity in the presence and absence of the test compound is used to determine the level of inhibition. […] The IC50 can then be determined from a plot of percentage inhibition against concentration of test compound.

SMILES	ED50 [1] [mg/kg]	inhibition at 2.5 µM (Squalene synthase) [%]
OC1(c2ccc(-c3ccccn3)cc2)CN2CCC1CC2 (stereo not drawn) [Example 2, 3-[4-(pyrid-2-yl)phenyl]quinuclidin-3-ol]	14	
OC1(c2ccc(-c3cncnc3)cc2)CN2CCC1CC2 (stereo not drawn) [Example 4, 3-[4-(pyrimidin-5-yl)phenyl]quinuclidin-3-ol]	4.5	~54
